In brackets after ≈: the same amount, converted by molar mass.
Columns and labels:
Type in all cases: functional
Aspergillus brasiliensis = assay: Antifungal activity against Aspergillus brasiliensis MTCC 1344 incubated for 7 days by microdilution method; settings: MTCC 1344, 168 h, time 7 day
Pseudomonas aeruginosa [1] = assay: Antibacterial activity against Pseudomonas aeruginosa MTCC 424 incubated for 24 hrs by two-fold serial dilution method
Staphylococcus aureus [2] = assay: Antibacterial activity against Staphylococcus aureus MTCC 7443 incubated for 24 hrs by two-fold serial dilution method
Bacillus subtilis [3] = assay: Antibacterial activity against Bacillus subtilis MTCC 441 incubated for 24 hrs by two-fold serial dilution method
Candida albicans [4] = assay: Antifungal activity against Candida albicans MTCC 227 incubated for 2 days by microdilution method; settings: MTCC 227, 48 h, time 2 day
Bacillus subtilis [5] = assay: Antibacterial activity against Bacillus subtilis assessed as inhibition zone at 1 mg/ml measured after overnight incubation by disc diffusion method; settings: read-out: IZ
Staphylococcus aureus [6] = assay: Antibacterial activity against Staphylococcus aureus assessed as inhibition zone at 1 mg/ml measured after overnight incubation by disc diffusion method; settings: read-out: IZ
Klebsiella pneumoniae = assay: Antibacterial activity against Klebsiella pneumoniae MTCC 618 incubated for 24 hrs by microdilution method
Pseudomonas aeruginosa [7] = assay: Antibacterial activity against Pseudomonas aeruginosa assessed as inhibition zone at 1 mg/ml measured after overnight incubation by disc diffusion method; settings: read-out: IZ
Escherichia coli [8] = assay: Antibacterial activity against Escherichia coli assessed as inhibition zone at 1 mg/ml measured after overnight incubation by disc diffusion method; settings: read-out: IZ
Candida albicans [9] = assay: Antifungal activity against Candida albicans RCMB-05036 assessed as diameter of inhibition zone at 5 mg/ml by diffusion technique; settings: read-out: DIZ
[10] = test system: Syncephalastrum racemosum; assay: Antifungal activity against Syncephalastrum racemosum RCMB-05922 assessed as diameter of inhibition zone at 5 mg/ml by diffusion technique; settings: read-out: DIZ
Aspergillus fumigatus = assay: Antifungal activity against Aspergillus fumigatus RCMB-02568 assessed as diameter of inhibition zone at 5 mg/ml by diffusion technique; settings: read-out: DIZ
Geotrichum candidum = assay: Antifungal activity against Geotrichum candidum RCMB-05097 assessed as diameter of inhibition zone at 5 mg/ml by diffusion technique; settings: read-out: DIZ
Staphylococcus aureus [11] = assay: Antibacterial activity against methicillin-resistant Staphylococcus aureus
Staphylococcus aureus [12] = assay: Antibacterial activity against inducibly-resistant Staphylococcus aureus
Staphylococcus aureus [13] = assay: Antibacterial activity against constitutively-resistant Staphylococcus aureus
Pseudomonas aeruginosa [14] = assay: Antibacterial activity against Pseudomonas aeruginosa MTCC 741 incubated for 24 hrs by microdilution method
Escherichia coli [15] = assay: Antibacterial activity against Escherichia coli MTCC 443 incubated for 24 hrs by microdilution method
[16] = test system: Staphylococcus epidermidis; assay: Antibacterial activity against Staphylococcus epidermidis incubated for 24 hrs by microdilution method
Bacillus subtilis [17] = assay: Antibacterial activity against Bacillus subtilis MTCC 441 incubated for 24 hrs by microdilution method
Staphylococcus aureus [18] = assay: Antibacterial activity against Staphylococcus aureus MTCC 96 incubated for 24 hrs by microdilution method

## COc1ccc(NC(=O)Cn2cc(COc3ccc(OCc4cn(CC(=O)Nc5ccc(OC)cc5)nn4)cc3)nn2)cc1
Aspergillus brasiliensis
  MIC: 0.167 µM (≈ 0.1 µg/mL)
Pseudomonas aeruginosa [1]
  MIC: 0.167 µM (≈ 0.1 µg/mL)
Staphylococcus aureus [2]
  MIC: 0.167 µM (≈ 0.1 µg/mL)
Bacillus subtilis [3]
  MIC: 0.167 µM (≈ 0.1 µg/mL)
Candida albicans [4]
  MIC: 0.167 µM (≈ 0.1 µg/mL)

## CCn1cc(C(=O)O)c(=O)c2cc(F)c(N3CCNCC3)cc21 [NORFLOXACIN]
Bacillus subtilis [5]
  zone of inhibition at 1000 µg/mL: 2.5 mm
Staphylococcus aureus [6]
  zone of inhibition at 1000 µg/mL: 2.5 mm
Klebsiella pneumoniae
  MIC: 9.38 µg/mL (≈ 29.4 µM)
Pseudomonas aeruginosa [7]
  zone of inhibition at 1000 µg/mL: 2.5 mm
Escherichia coli [8]
  zone of inhibition at 1000 µg/mL: 2.5 mm

## C[C@@H]1[C@H](O)[C@@H](C)/C=C/C=C/C=C/C=C/C=C/C=C/C=C/[C@H](O[C@@H]2O[C@H](C)[C@@H](O)[C@H](N)[C@@H]2O)C[C@@H]2O[C@](O)(C[C@@H](O)C[C@@H](O)[C@H](O)CC[C@@H](O)C[C@@H](O)CC(=O)O[C@H]1C)C[C@H](O)[C@H]2C(=O)O [AMPHOTERICIN B]
Candida albicans [9]
  zone of inhibition at 5000 µg/mL: 19.7 mm
[10]
  zone of inhibition at 5000 µg/mL: 19.7 mm
Aspergillus fumigatus
  zone of inhibition at 5000 µg/mL: 19.7 mm
Geotrichum candidum
  zone of inhibition at 5000 µg/mL: 19.7 mm

## SPIRAMYCIN
Staphylococcus aureus [11]
  MIC: > 256 µg/mL
Staphylococcus aureus [12]
  MIC: > 256 µg/mL
Staphylococcus aureus [13]
  MIC: > 256 µg/mL

## O=C(c1cn(Cc2cn(-c3ccc(C(F)(F)F)cc3)nn2)c2cc(N3CCOCC3)c(F)cc2c1=O)N1CCOCC1
Pseudomonas aeruginosa [14]
  MIC: 18.8 µg/mL (≈ 32 µM)
Klebsiella pneumoniae
  MIC: 18.8 µg/mL (≈ 32 µM)
Escherichia coli [15]
  MIC: 18.8 µg/mL (≈ 32 µM)
[16]
  MIC: 18.8 µg/mL (≈ 32 µM)
Bacillus subtilis [17]
  MIC: 18.8 µg/mL (≈ 32 µM)
Staphylococcus aureus [18]
  MIC: 18.8 µg/mL (≈ 32 µM)
